Measured values published in US9943525B2, “Composition for reducing cell senescence comprising Rho-kinase inhibitor and use thereof” (Samsung Electronics Co., Ltd., priority 2014, dated 2018).

Legend:
[1] = tested on: senescent fibroblasts (after 37 cell passages); assay: lipofuscin autofluorescence by flow cytometry; type: cell-based, human; details: 4 weeks, vs control, p<0.05, FIG. 9
Protocol: In addition, amounts of lipofuscin accumulated in the cultured cells were measured. Senescent cells (After 37 cell passages) were cultured for 4 weeks in a 5% CO2 incubator at 37° C. in the presence of 5 μM of Y-27632, 5 μM of FASUDIL, and 0.5 μM of SR3677. The culture media were changed at every 4 days with new culture media supplemented with 5 μM of Y-27632, 5 μM of FASUDIL, and 0.5 μM of SR3677. Since lipofuscin has autofluorescence characteristics, light having a wavelength of 488 nm was irradiated to the cells by using a FACSCaliber (Beckton Dickinson) and light emission at 520 nm was measured. The results are analyzed using a Cell Quest 3.2 software (Beckton Dickinson). FIG. 9 is a graph displaying amounts of lipofuscin in fibroblasts (after 37 cell passages) cultured in the presence of Rho-kinase inhibitors Y-27632 (5 μM), Fasudil (5 μM), and SR3677 (0.5 μM). […] In FIG. 9, * indicates statistically significant (p<0.05).

[2] = tested on: senescent myoblasts (11 cell passages); assay: mitochondrial membrane potential (JC-1) by flow cytometry; type: cell-based, Human; details: vs control, p<0.05, FIG. 16
Protocol: (§1) Myoblast cell lines (Human Skeletal Muscle Myoblasts, Lonza CC-2580 LOT:0000387550) were cultured in SkBM™-2 Basal Media (Lonza CC-3246) including an SkGM™-2 SingleQuots™ Kit (Lonza CC-3244) on plates coated with Collagen Type I (Greiner Bio One, 658950) in a 5% CO2 incubator at 37° C. Subculture was initiated when the cells were approximately 85% confluent in plates. Early subcultures were performed at a split ratio of 1:4, and later subcultures were performed at a split ratio of 1:2. When cell doubling time was 14 days, the cells were regarded as senescent myoblasts (cell passages 10 to 12).
Senescent cells were seeded on each well of a 6-well plate coated with Collagen Type I (Greiner Bio One, 657950) in a concentration of 2,000 cells/well. Senescent myoblasts (passage 11) were cultured in the presence of 5 μM of Y-27632, 5 μM of FASUDIL, and 0.5 μM of SR3677 for 4 weeks in a 5% CO2 incubator at 37° C. The culture media were changed at every 4 days with new culture media supplemented with 5 μM of Y-27632, 5 μM of FASUDIL, and 0.5 μM of SR3677. A negative control group was prepared in the same manner, except that 0.05 (v/v) % of DMSO was used.
Mitochondrial membrane potentials were measured using a MitoProbe™ JC-1 Assay kit for Flow Cytometry (Life technologies, T3168) according to manufacturer's manuals. JC-1 is accumulated in mitochondria in a potential-dependent manner, and this accumulation is identified by fluorescence emission shift from green (about 529 nm) to red (about 590 nm). As a result, mitochondrial depolarization is identified by a decrease in a red/green fluorescence ratio. The mitochondrial membrane potentials were measured by excitation at 488 nm using a FACSCaliber (Beckton Dickinson) and using a flow cytometer by using 530/30 nm and 585/42 nm band pass filters. The results were analyzed using Cell Quest 3.2 software (Beckton Dickinson).

[3] = tested on: senescent progeric fibroblasts (cell passage 17); assay: DNA comet assay; type: cell-based, human; details: 4 weeks, vs DMSO, p<0.05, FIG. 21
Protocol: The degrees of restoration of DNA damage in senescent progeric fibroblasts by the Rho-kinase inhibitors were identified by a DNA comet assay. This method is performed by detecting DNA fractions cleaved by ultraviolet (UV) irradiation. This method is based on gel electrophoresis. During gel electrophoresis, damaged DNA migrates farther than normal DNA forming a tail like a comet-tail. Then, a slide was stained with SYBR Green, and the length of a tail of a DNA fraction was measured using a fluorescence microscope to identify the degree of DNA damage.
FIG. 21 is a graph displaying degrees of DNA damage in progeric fibroblasts (cell passage 17) cultured in the presence of Rho-kinase inhibitors Y-27632 (5 μM), Fasudil (5 μM), and SR3677 (0.5 μM) measured by a DNA comet assay indicating the degree of DNA damage. In FIG. 21, senescent progeric cells (cell passage 17) were cultured in culture media supplemented with 5 μM of Y-27632, 5 μM of FASUDIL, and 0.5 μM of SR3677 for 4 weeks in a 5% CO2 incubator at 37° C. The culture media were changed at every 4 days with new culture media supplemented with 5 μM of Y-27632, 5 μM of FASUDIL, and 0.5 μM of SR3677. Cells having a cell doubling time of 6 to 7 days were used as young cells. A negative control group was prepared in the same manner, except that DMSO was used. […] Thus, it was confirmed that the degree of DNA damage increases in senescent cells. […] In FIG. 21, * indicates statistically significant (p<0.05).

[4] = tested on: senescent myoblasts (11 cell passages); assay: lipofuscin autofluorescence by flow cytometry; type: cell-based, Human; details: 4 weeks, vs control, p<0.05, FIG. 14
Protocol: as §1
In addition, amounts of lipofuscin accumulated in the cultured cells were measured. Senescent myoblasts (11 cell passages) were cultured in the presence of 5 μM of Y-27632, 5 μM of FASUDIL, and 0.5 μM of SR3677 for 4 weeks in a 5% CO2 incubator at 37° C. The culture media were changed at every 4 days with new culture media supplemented with 5 μM of Y-27632, 5 μM of FASUDIL, and 0.5 μM of SR3677. Since lipofuscin has autofluorescence characteristics, light having a wavelength of 488 nm was irradiated to the cells by using a FACSCaliber (Beckton Dickinson) and light emission at 520 nm was measured. The results were analyzed using Cell Quest 3.2 software (Beckton Dickinson). FIG. 14 is a graph displaying amounts of lipofuscin in myoblasts (11 cell passages) cultured in the presence of Rho-kinase inhibitors Y-27632 (5 μM), Fasudil (5 μM), and SR3677 (0.5 μM). […] In FIG. 14, * indicates statistically significant (p<0.05).

Q: With `O=S(=O)(c1cccc2cnccc12)N1CCCNCC1` [FASUDIL, 5-(1,4-diazepane-1-sulfonyl)isoquinoline] as the compound, how does the “amounts of lipofuscin in cells” value ([1]; 5 μM) read?
A: The value was “significantly reduced”.

Q: And the “action potentials of mitochondria (mitochondrial membrane potential)” value ([2]; 5 μM)?
A: Its value is “significantly increased”.

Q: And the “DNA damage (Tail Moment)” value ([3]; 5 μM)?
A: The value was “considerably reduced”.

Q: What about the amounts of lipofuscin ([4]; 5 μM) of the same compound?
A: Its amounts of lipofuscin is “significantly reduced”.

Q: For `CN(C)CCOc1cc(-c2cn[nH]c2)ccc1NC(=O)C1COc2ccccc2O1` (stereo not drawn) [SR3677], which “amounts of lipofuscin in cells” value ([1]; 0.5 μM) is on record?
A: Its value is “significantly reduced”.

Q: And the “action potentials of mitochondria (mitochondrial membrane potential)” value ([2]; 0.5 μM)?
A: The value was “significantly increased”.

Q: What about the “DNA damage (Tail Moment)” value ([3]; 0.5 μM) of the same compound?
A: The value was “considerably reduced”.

Q: And the amounts of lipofuscin ([4]; 0.5 μM)?
A: Its amounts of lipofuscin is “significantly reduced”.

Q: What does the source list for `C[C@@H](N)[C@H]1CC[C@H](C(=O)Nc2ccncc2)CC1` [Y-27632, (1R,4R)-4-((R)-1-aminoethyl)-N-(pyridin-4-yl)cyclohexanecarboxamide]?
A: amounts of lipofuscin in cells ([1]; 5 μM): significantly reduced; action potentials of mitochondria (mitochondrial membrane potential) ([2]; 5 μM): significantly increased; DNA damage (Tail Moment) ([3]; 5 μM): considerably reduced; amounts of lipofuscin ([4]; 5 μM): significantly reduced
